{
  "source": "patent US20050187462A1",
  "about": "“Dynamic contrast enhanced imaging using a mamillary distributed parameter model” (priority 2004, published 2005)",
  "assay": "Prostate case study: DCE CT tissue concentration-time curve fitted to 2-, 3- and 4-compartment mamillary distributed-parameter models",
  "format": "in vivo, patient",
  "conditions": "value (percent CV); for t1: vascular transit time",
  "source_text": "It is instructive to apply the present mamillary model to a tumor study case to further illustrate some physiological aspects of the model, and also for comparison with another model. Ca(t) was sampled at the iliac arteries simultaneously in the same CT scan as the prostate tissue concentration-time curve, Ctiss(t). The contrast medium used was the x-ray dye lopamidol and the region of interest for Ctiss was drawn over the prostate gland. Example imaging and patient protocols that were used are, for example, expounded upon in T. S. Koh, V. Zeman, J. Darko, T. Lee, M. F. Milosevic, M. Haider, P. Warde, and I. W. T. Yeung, “The inclusion of capillary distribution in the adiabatic tissue homogeneity model of blood flow”, Phys. Med. Biol., vol. 46, pp. 1519-1538, 2001.\nThe ‘goodness-of-fit’ between model and data can be given by the χ^2 statistic as detailed in equation (11).\nA 2-compartment distributed-parameter model has 4 adjustable parameters (i.e F, t1, k12 and k21), and each additional compartment introduces two additional parameters given by the rate constants.\nThe tissue concentration-time curve Ctiss(t) was sampled at a region of interest over the prostate tumor. […] A test statistic to compare the goodness-of-fit of a more complex model (χ^2c) with that of a less complex (reduced) model (χ^2r) can be given by equation (12), namely [formula] which follows the F-distribution. The degrees of freedom dfr and dfc are those associated with the reduced and complex models, respectively. […] Correspondingly, large values of F* would justify the more complex model.\nThe fitted Ctiss(t) curves using 2-, 3- and 4-compartment distributed-parameter models are shown in FIG. 5 and their corresponding impulse residue functions are shown in FIG. 6. The values for the parameters adjusted in the model fittings together with their error estimates (as percent CVi) are listed in Table 1.",
  "key": {"[1]": {"conditions": "2-compartment model, rate constant for tracer transfer"}, "[2]": {"conditions": "3-compartment model, rate constant for tracer transfer"}, "[3]": {"conditions": "4-compartment model, rate constant for tracer transfer"}},
  "data": [
    {"compound": "C[C@H](O)C(=O)Nc1c(I)c(C(=O)NC(CO)CO)c(I)c(C(=O)NC(CO)CO)c1I", "note": "[lopamidol]", "values": [
      {"measurement": "K12", "setting": "[1]", "result": "0.744 (4) min^−1"},
      {"measurement": "K21", "setting": "[1]", "result": "2.183 (4) min^−1"},
      {"measurement": "t1", "setting": "2-compartment model", "result": "0.717 (3) min"},
      {"measurement": "K12", "setting": "[2]", "result": "1.581 (17) min^−1"},
      {"measurement": "K13", "setting": "[2]", "result": "0.259 (28) min^−1"},
      {"measurement": "K21", "setting": "[2]", "result": "1.854 (15) min^−1"},
      {"measurement": "K31", "setting": "[2]", "result": "0.818 (25) min^−1"},
      {"measurement": "t1", "setting": "3-compartment model", "result": "0.688 (9) min"},
      {"measurement": "K12", "setting": "[3]", "result": "1.579 (20) min^−1"},
      {"measurement": "K13", "setting": "[3]", "result": "0.264 (36) min^−1"},
      {"measurement": "K14", "setting": "[3]", "result": "0.000 (53) min^−1"},
      {"measurement": "K21", "setting": "[3]", "result": "1.853 (17) min^−1"},
      {"measurement": "K31", "setting": "[3]", "result": "0.816 (32) min^−1"},
      {"measurement": "K41", "setting": "[3]", "result": "0.000 (44) min^−1"},
      {"measurement": "t1", "setting": "4-compartment model", "result": "0.688 (11) min"}
    ]}
  ]
}
